# Results: patent publication US9408853B2, “Iridium/rhodium anti-cancer compounds” (University of Warwick, priority 2010, dated 2016)
# Like-named read-outs stand apart in the source and are kept apart here.
# How the values were obtained:
# 9-ethylguanine (9-EtG) = assay: Interactions with nucleobases: 9-EtG adduct formation (1H NMR); assay type: binding; conditions: 1 mM, 1 mol equiv 9-EtG (ZL33A: 2 mol equiv), D2O, 310 K
# Protocol: (§1) Interactions with Nucleobases. The reaction of ZL01, ZL03, ZL04, ZL07, ZL25, ZL33, ZL37, ZL38, ZL43 and ZL54 and ZL33A with nucleobases typically involved addition of a solution containing 1-2 mol equiv of nucleobase in D2O, to an equilibrium solution of ZL01, ZL03, ZL04, ZL07, ZL25, ZL33, ZL37, ZL38, ZL43, ZL54 and ZL33A in a solution of 5% MeOD-d4/95% D2O (v/v). ^1H NMR spectra of these solutions were recorded at 310 K after various time intervals.
# (§2) Since DNA is a potential target site for transition metal anticancer complexes,^18 nucleobase binding reactions of compounds ZL01, ZL03, ZL04, ZL07, ZL25, ZL33, ZL33A, ZL37, ZL38, ZL43 and ZL54 with nucleobase models 9-ethylguanine (9-EtG) and 9-ethyladenine (9-EtA), were investigated. Solutions of ZL01, ZL03, ZL04, ZL07, ZL25, ZL33, ZL37, ZL38, ZL43 and ZL54 (1 mM) (containing an equilibrium mixture of these complexes and their respective aqua adducts) with 1 mol equivalent of 9-EtG or 9-EtA in D2O were prepared, and ^1H NMR spectra were recorded at different time intervals.
# Interactions with Nucleobases. Since DNA is a potential target site for transition metal anticancer complexes,^23 the binding of 9-ethylguanine (9-EtG) to complexes ZL47, ZL49, ZL69, ZL74 and ZL107 was studied.
# 9-ethyladenine (9-EtA) = assay: Interactions with nucleobases: 9-EtA adduct formation (1H NMR); assay type: binding; conditions: 1 mM, 1 mol equiv 9-EtA, D2O, 310 K
# Protocol: as §1, §2
# [1] = tested on: human ovarian A2780 cancer cells; assay: Cancer cell cytotoxicity, SRB assay; assay type: cell-based
# Protocol: Cancer Cell Cytotoxicity. After plating, human ovarian A2780 cancer cells were treated with Ir^III complexes on day 3 at concentrations ranging from 0.5 μM to 100 μM. Solutions of the Ir^III complexes were made up in 0.125% DMSO to assist dissolution. Stock solutions of the IrIII complexes were firstly prepared in DMSO to assist dissolution, and then diluted into 0.9% saline and medium. After plating 5000 A2780 cells per well on day 1, IrIII complexes were added to the cancer cells on day 3 at concentrations ranging from 0.05 μM to 100 μM. Cells were exposed to the complexes for 24 h, washed, supplied with fresh medium, allowed to grow for three doubling times (72 h), and then the protein content measured (proportional to cell survival) using the sulforhodamine B (SRB) assay.^15 […]. The standard errors are based on two independent experiments of three replicates each.
# [2] = Determination of pKa* of coordinated D2O by 1H NMR pH* titration; assay type: physicochemical; conditions: for pKa (deprotonation of coordinated D2O): calculated from pKa* according to Krezel and Bal (pKa=0.929pKa*+0.42); for pKa* (deprotonation of coordinated D2O): in D2O
# Protocol: pH* Measurement. pH* values (pH meter reading without correction for effects of D on glass electrode) of NMR samples in D2O were measured at ca. 298 K directly in the NMR tube, before and after recording NMR spectra, using a Corning 240 pH meter equipped with a micro combination electrode calibrated with Aldrich buffer solutions of pH 4, 7 and 10. For determination of the pKa* value of aquated complexes, complexes were dissolved in D2O and 0.98 mol equiv of AgNO3 was added. The solution was stirred for 24 h at 298 K, and AgCl was removed by filtration.
# Determination of pKa* Values. […] The chemical shifts of the chelating ligands or/and methyl group of Cp* protons were plotted against pH*. The pH* titration curves were fitted to the Henderson-Hasselbalch equation, with the assumption that the observed chemical shifts are weighted averages according to the populations of the protonated and deprotonated species.
# The changes in the ^1H NMR chemical shifts for the protons of the coordinated chelating ligands in compounds ZL25A, ZL54A, ZL38A, chelating ligands and methyl group in Cp* or Cp^xph in compounds ZL04A, ZL07A, ZL37A, ZL03A, and methyl group in Cp* in compound ZL01A were followed with change in pH* over a range of 2-11. The mean pKa* value was taken for each complex.
# When the pH* values of the solutions were increased from about 2 to 11, the NMR peaks assigned to ZL01A, ZL03A, ZL04A, ZL07A, ZL25A, ZL37A, ZL38A and ZL54A gradually shifted to high field in the spectrum.
# When the pH* values of the solutions were increased from about 2 to 10, the NMR peaks assigned to aqua complexes ZL47A, ZL49A, ZL69A and ZL74A gradually shifted to high field in the spectrum. The resulting pH titration curves were fitted to the modified Henderson-Hasselbalch equation, from which the pKa* values of the coordinated water were determined.
# [3] = 24 h exposure, 72 h recovery, SRB, read-out: A2780 IC50
# [4] = screening test, read-out: A2780 IC50, data from screening test
pKa (deprotonation of coordinated D2O) [2],pKa* (deprotonation of coordinated D2O) [2],Compound,"IC50 [1, 3] [µM]",also measured
,,"Cc1c(C)c(C)[c-](C)c1C.F[P-](F)(F)(F)(F)F.NCCN.[Cl-].[Ir+3] [ZL01, [(η^5-C5Me5)IrCl(H2NCH2CH2NH2—N,N)]PF6]",> 100,"Reaction with 9-EtG, extent of adduct formation (9-ethylguanine (9-EtG); 10 min): 100%; Reaction with 9-EtG, extent of adduct formation (9-ethylguanine (9-EtG); 24 h): 100%; Reaction with 9-EtA, extent of adduct formation (9-ethyladenine (9-EtA); 10 min): 0%; Reaction with 9-EtA, extent of adduct formation (9-ethyladenine (9-EtA); 24 h): 0%"
7.54,7.66,"Cc1c(C)c(C)[c-](C)c1C.NCCN.[2H]O[2H].[Ir+3] [ZL01A, [(η^5-C5Me5)IrCl(en)OD2]^2+]",,
,,"CC(=O)C=C(C)[O-].Cc1c(C)c(C)[c-](C)c1C.[Cl-].[Ir+3] [ZL02, [(η^5-C5Me5)Ir(acac)Cl]]",> 100,
,,"Cc1c(C)c(C)[c-](C)c1C.O=C([O-])c1ccccn1.[Cl-].[Ir+3] [ZL03, [(η^5-C5Me5)Ir(η^2—C5H4N-2-CO2)Cl]]",> 100,"Reaction with 9-EtG, extent of adduct formation (9-ethylguanine (9-EtG); 10 min): 100%; Reaction with 9-EtG, extent of adduct formation (9-ethylguanine (9-EtG); 24 h): 100%; Reaction with 9-EtA, extent of adduct formation (9-ethyladenine (9-EtA); 10 min): 80.8%; Reaction with 9-EtA, extent of adduct formation (9-ethyladenine (9-EtA); 24 h): 80.7%"
,,"Cc1c(C)c(C)[c-](C)c1C.[Cl-].[Cl][Ir]1[n+]2ccccc2-c2cccc[n+]21 [ZL04, [(η^5-C5Me5)Ir(bipy)Cl]Cl]",> 100,"Reaction with 9-EtG, extent of adduct formation (9-ethylguanine (9-EtG); 10 min): 28.2%; Reaction with 9-EtA, extent of adduct formation (9-ethyladenine (9-EtA); 10 min): 0%; Reaction with 9-EtA, extent of adduct formation (9-ethyladenine (9-EtA); 24 h): 0%"
,,"Cc1c(C)c(-c2ccccc2)[c-](C)c1C.NCCN.[Cl-].[Ir+3].c1ccc([B-](c2ccccc2)(c2ccccc2)c2ccccc2)cc1 [ZL31, [(η^5-C5Me4C6H5)IrCl(H2NCH2CH2NH2—N,N)]BPh4]",17,
,,"Cc1c(C)c(C)[c-](C)c1C.[Cl-].[Ir+3].[O-]c1cccnc1-c1ncccc1O [ZL44, [(η^5-C5Me5)Ir(bipy(OH)O)Cl]]",17.2,cytotoxic activity towards A2780 (in words) [1]: moderate or high activity
,,"Cc1c(C)c(C)[c-](-c2ccccc2)c1C.F[P-](F)(F)(F)(F)F.Oc1cccnc1-c1ncccc1O.[Cl-].[Ir+3] [ZL45, [(η^5-C5Me4C6H5)Ir(bipy(OH)2)Cl]PF6]",7.2,
,,"Cc1c(C)c(C)[c-](-c2ccc(-c3ccccc3)cc2)c1C.[Cl-].[Ir+3].[O-]c1cccnc1-c1ncccc1O [ZL46, {(η^5-C5Me4C6H4C6H5)Ir[bipy(OH)(O)]Cl}]",2.8,
,,"Cc1c(C)c(C)[c-](C)c1C.[Cl-].[Ir+3].[c-]1ccccc1C=Nc1ccccc1 [ZL51, [(η^5-C5Me5)Ir{C6H4-2-C(H)═NPh-κC,N}Cl]]",5,cytotoxic activity towards A2780 (in words) [1]: moderate or high activity
,,"Cc1c(C)c(C)[c-](C)c1C.Cc1ccnc(-c2cc(C)ccn2)c1.F[P-](F)(F)(F)(F)F.[Cl-].[Ir+3] [ZL55, [(η^5-C5Me5)Ir(bipy(Me)2)Cl]PF6]",> 100,
,,"Cc1c(C)c(C)[c-](-c2ccccc2)c1C.Cc1ccnc(-c2cc(C)ccn2)c1.F[P-](F)(F)(F)(F)F.[Cl-].[Ir+3] [ZL57, [(η^5-C5Me4C6H5)Ir(bipy(Me)2)Cl]PF6]",9.2,
,,"Cc1c(C)c(C)[c-](-c2ccc(-c3ccccc3)cc2)c1C.Cc1ccnc(-c2cc(C)ccn2)c1.F[P-](F)(F)(F)(F)F.[Cl-].[Ir+3] [ZL59, [(η^5-C5Me4C6H4C6H5)Ir(bipy(Me)2)Cl]PF6]",0.51,
,,"CN(C)c1ccc(N=Nc2ccccn2)cc1.Cc1c(C)c(C)[c-](C)c1C.F[P-](F)(F)(F)(F)F.[Cl-].[Ir+3] [ZL64, [(η^5-C5Me5)Ir(azpy-NMe2)Cl]PF6]",,"IC50 [1, 4]: < 30 µM"
,,"Cc1c(C)c(C)[c-](-c2ccccc2)c1C.F[P-](F)(F)(F)(F)F.[Cl][Ir+2]1[N]2C=CC=c3c2c2c(c4nccnc34)=CC=C[N]21 [ZL89, [(η^5-C5Me4C6H5)Ir(dpq)Cl]PF6]",,"IC50 [1, 4]: < 5 µM"
,,"Cc1c(C)c(C)[c-](-c2ccccc2)c1C.[Cl-].[Cl][Ir+2].c1ccc2nc3c4cccnc4c4ncccc4c3nc2c1 [ZL93, [(η^5-C5Me4C6H5)Ir(dppz)Cl]Cl]",,"IC50 [1, 4]: < 5 µM"

pKa (deprotonation of coordinated D2O) [2],pKa* (deprotonation of coordinated D2O) [2],Compound,"IC50 [1, 3] [µM]",also measured
,,"Cc1c(C)c(C)[c-](-c2ccc(-c3ccccc3)cc2)c1C.[Cl-].[Cl][Ir+2].c1cnc2c(c1)c1nccnc1c1cccnc12 [ZL94, [(η^5-C6Me4C6H4C6H5)Ir(dpq)Cl]Cl]",,"IC50 [1, 4]: < 5 µM"
,,"Cc1c(C)c(C)[c-](-c2ccc(-c3ccccc3)cc2)c1C.[Cl-].[Cl][Ir+2].c1ccc2nc3c4cccnc4c4ncccc4c3nc2c1 [ZL95, [(η^5-C5Me4C6H4C6H5Pr(dppz)Cl]Cl]",,"IC50 [1, 4]: < 5 µM"
,,"CCC[c-]1c(C)c(C)c(C)c1C.[Cl-].[Ir+3].[c-]1ccccc1-c1ccccn1 [ZL100, [(η^5-C5Me4C3H7)Ir(2-phpy)Cl]]",,"IC50 [1, 4]: < 10 µM"
,,"Cc1c(C)c(-c2ccc(-c3ccccc3)cc2)[c-](C)c1C.Fc1c[c-]c(-c2ccccn2)c(F)c1.[Cl-].[Ir+3] (stereo not shown) [ZL103, [(η^5-C5Me4C6H4C6H5)Ir(2-dfphpy)Cl]]",0.67 ± 0.11,
,,"Cc1c(C)c(-c2ccc(-c3ccccc3)cc2)[c-](C)c1C.F[P-](F)(F)(F)(F)F.[Ir+3].[c-]1ccccc1-c1ccccn1.c1ccncc1 (stereo not shown) [ZL105, [(η^5-C5Me4C6H4C6H5)Ir(2-phpy)(py)]PF6]",0.12 ± 0.02,
,,"CN(C)c1ccc(N=Nc2ccccn2)cc1.Cc1c(C)c(-c2ccccc2)[c-](C)c1C.F[P-](F)(F)(F)(F)F.[Cl-].[Ir+3] [ZL109, [(η^5-C5Me4C6H5)Ir(azpy-NMe2)Cl]PF6]",,"IC50 [1, 4]: < 10 µM"
8.31,8.50,[(η^5-C5Me4C6H4C6H5)Ir(2-phpy)(D2O)]^+ [ZL49A],,
6.63,6.68,[(η^5-C5Me4C6H4C6H5)Ir(bipy)OD2]^2+ [ZL25A],,
7.38,7.50,[(η^5-C5Me4C6H4C6H5)Ir(phen)OD2]^2+ [ZL54A],,
6.28,6.31,[(η^5-C5Me4C6H5)Ir(bipy)OD2]^2+ [ZL37A],,
7.62,7.75,[(η^5-C5Me4C6H5)Ir(pico)OD2]^+ [ZL38A],,
8.32,8.51,[(η^5-C5Me5)Ir(2-dfphpy)(D2O)]^+ [ZL74A],,
8.75,8.97,[(η^5-C5Me5)Ir(2-phpy)(D2O)]^+ [ZL47A],,
7.99,8.15,[(η^5-C5Me5)Ir(pico)OD2]^+ [ZL03A],,
8.87,9.10,[(η^5-C5Me5)Ir(tpy)(D2O)]^+ [ZL69A],,

Compound,pKa (deprotonation of coordinated D2O) [2],pKa* (deprotonation of coordinated D2O) [2],"IC50 [1, 3] [µM]",also measured
"Cc1c(C)c(C)[c-](C)c1C.[2H]O[2H].[Ir+3].c1ccc(-c2ccccn2)nc1 [ZL04A, [(η^5-C5Me5)Ir(bipy)OD2]^2+]",6.86,6.94,,
"Cc1c(C)c(C)[c-](C)c1C.[2H]O[2H].[Ir+3].c1cnc2c(c1)ccc1cccnc12 [ZL07A, [(η^5-C5Me5)Ir(phen)OD2]^2+]",7.74,7.88,,
